Experimental data from patent publication US20230183216A1, “PYRIDIZIN-3(2H)-ONE DERIVATIVES” (Gilead Sciences, Inc., priority 2021, published 2023).

Tests used:
[1] = tested on: STAT1 (phosphorylated at Tyr701) in NCI-H1373 cells; experiment: Phospho-STAT1 (Tyr701) LANCE Ultra TR-FRET Detection Assay; type: cell-based; details: Homo sapiens, 48 hours, induction of pSTAT1, normalized to 10 uM positive control and DMSO, 4-parameter fit, read-out: NH1373 pSTAT1 EC50
Description: Phospho-STAT1 (Tyr701 LANCE Ultra TR-FRET Detection Assay
LANCE Ultra phospho-STAT1 (Tyr701) kits available from Perkin Elmer are designed for the detection of phosphorylated STAT1 in cell lysates using a simple, homogeneous LANCE Ultra sandwich assay (Cat. #TRF4028M). This assay is intended for assessing compound induction of endogenous levels of cellular STAT1 (phosphorylated at Tyr701) in NCI-H1373 cells. The NCI-H1373 cells are cultured in RPMI 1640 media containing 10% heat inactivated FBS, GlutaMAX, 1% Penicillin-Streptomycin. An Echo acoustic liquid handler is used to transfer 60 nanoliters of compound dilutions using the Echo Qualified, 384-well polypropylene microplate clear flat bottom source plates into a Greiner (#781080) cell culture microplate. NCI-H1373 cells are seeded into these compound-spotted culture plates at 30,000 cells/well in a 60 uL volume in growth media. The plates are incubated in a 5% CO2 humidified incubator at 37° C. for 48 hours. […] Briefly, 20 μL of supplemented lysis buffer is added to each well and allowed to shake for 1 hour at 400 rpm. Next, 5 ul of remixed antibody solutions (vol/vol) prepared in detection buffer are added to each well and allowed to incubate at room temperature overnight. After spinning the plate down at 300 rpm for […], the plate is read on an EnVision plate reader set up for Eu3+ Cryptate and fluorescence emission is measured at two different wavelengths (665 nm and 620 nm).

PARP7 = molecular target: T1, PARP7 (Homo sapiens, UniProt Q7Z3E1); experiment: biochemical;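 further: MSD light signal quantifying PARP7 captured by a plate-immobilized probe, read after 1.5 h equilibration plus 1.5 h with SULFO-TAG anti-GST antibody at room temperature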
T1 sequence (Q7Z3E1 1-657): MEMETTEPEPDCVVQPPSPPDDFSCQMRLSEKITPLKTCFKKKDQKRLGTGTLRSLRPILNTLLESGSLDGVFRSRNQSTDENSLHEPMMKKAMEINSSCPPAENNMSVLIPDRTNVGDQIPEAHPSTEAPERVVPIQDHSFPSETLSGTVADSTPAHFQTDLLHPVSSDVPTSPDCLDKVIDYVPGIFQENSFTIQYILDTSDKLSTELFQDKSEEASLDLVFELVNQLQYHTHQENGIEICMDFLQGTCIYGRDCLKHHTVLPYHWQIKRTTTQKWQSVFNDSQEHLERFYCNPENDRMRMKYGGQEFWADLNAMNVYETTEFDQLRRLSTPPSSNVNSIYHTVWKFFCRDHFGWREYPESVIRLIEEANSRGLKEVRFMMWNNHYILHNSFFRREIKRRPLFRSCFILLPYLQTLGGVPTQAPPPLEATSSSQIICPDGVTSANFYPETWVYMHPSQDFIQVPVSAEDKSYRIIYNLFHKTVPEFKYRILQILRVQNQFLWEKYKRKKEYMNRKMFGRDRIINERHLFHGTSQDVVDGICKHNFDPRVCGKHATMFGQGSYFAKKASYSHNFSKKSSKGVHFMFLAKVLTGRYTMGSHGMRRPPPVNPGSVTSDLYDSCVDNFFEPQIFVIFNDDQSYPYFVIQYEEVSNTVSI

**Q.** O=C([C@@H]1C[C@H]1CNc1cc(C(F)(F)F)c(=O)[nH]n1)N1CCN(c2ncc(C(F)(F)F)cn2)CC1 [Example 22, 4-(trifluoromethyl)-6-((((1R,2R)-2-(4-(5-(trifluoromethyl)pyrimidin-2-yl)piperazine-1-carbonyl)cyclopropyl)methyl)amino)pyridazin-3(2H)-one] was tested. Which EC50 [1] did it give?
**A.** ≥ 10000 nM

**Q.** What about the IC50 (PARP7) of the same compound?
**A.** 2.57 nM

**Q.** How did the EC50 [1] turn out when O=C([C@@H]1CCc2ccccc2N1c1cc(C(F)(F)F)c(=O)[nH]n1)N1CCN(c2ncc(C(F)(F)F)cn2)CC1 [Example 58, 5-(trifluoromethyl)-3-[(2S)-2-[4-[5-(trifluoromethyl)pyrimidin-2-yl]piperazine-1-carbonyl]-3,4-dihydro-2H-quinolin-1-yl]-1H-pyridazin-6-one] was run?
**A.** 2110 nM

**Q.** What about the IC50 (PARP7) of the same compound?
**A.** 4.36 nM

**Q.** How did the EC50 [1] turn out when O=C([C@@H]1CN(c2cc(C(F)(F)F)c(=O)[nH]n2)CCO1)N1CCN(c2ncc(C(F)(F)F)cn2)CC1 [Example 43, (S)-4-(trifluoromethyl)-6-(2-(4-(5-(trifluoromethyl)pyrimidin-2-yl)piperazine-1-carbonyl)morpholino)pyridazin-3(2H)-one] was run?
**A.** ≥ 10000 nM

**Q.** What about the IC50 (PARP7) of the same compound?
**A.** 20.1 nM

**Q.** For O=C([C@@H]1CCCCN1c1cc(C(F)(F)F)c(=O)[nH]n1)N1CCN(c2ncc(C(F)(F)F)cn2)CC1 [Example 28, (S)-4-(trifluoromethyl)-6-(2-(4-(5-(trifluoromethyl)pyrimidin-2-yl)piperazine-1-carbonyl)piperidin-1-yl)pyridazin-3(2H)-one], which EC50 [1] is on record?
**A.** 264 nM

**Q.** What about the IC50 (PARP7) of the same compound?
**A.** 0.879 nM

**Q.** For O=C([C@@H]1CC[C@H](Nc2cc(C(F)(F)F)c(=O)[nH]n2)C1)N1CCN(c2ncc(C(F)(F)F)cn2)CC1 [Example 62, 5-(trifluoromethyl)-3-[[(1S,3R)-3-[4-[5-(trifluoromethyl)pyrimidin-2-yl]piperazine-1-carbonyl]cyclopentyl]amino]-1H-pyridazin-6-one], which EC50 [1] is on record?
**A.** 2200 nM

**Q.** What about the IC50 (PARP7) of the same compound?
**A.** 1.29 nM

**Q.** What does the source list for O=C(CCCCc1n[nH]c(=O)c2c1CCCC2)N1CCN(c2ncc(C(F)(F)F)cn2)CC1 [Example 69, 4-[5-oxo-5-[4-[5-(trifluoromethyl)pyrimidin-2-yl]piperazin-1-yl]pentyl]-5,6,7,8-tetrahydro-2H-phthalazin-1-one]?
**A.** EC50 [1]: 160 nM; IC50 (PARP7): 0.755 nM

**Q.** With O=C(CC[C@@H]1CCCCN1c1cc(C(F)(F)F)c(=O)[nH]n1)N1CCN(c2ncc(C(F)(F)F)cn2)CC1 [Example 31, (S)-6-(2-(3-oxo-3-(4-(5-(trifluoromethyl)pyrimidin-2-yl)piperazin-1-yl)propyl)piperidin-1-yl)-4-(trifluoromethyl)pyridazin-3(2H)-one] as the compound, how does the EC50 [1] read?
**A.** 172 nM

**Q.** And the IC50 (PARP7)?
**A.** 0.671 nM

**Q.** How did the EC50 [1] turn out when O=C(CCCN(CC(F)F)c1cc(C(F)(F)F)c(=O)[nH]n1)N1CCN(c2ncc(C(F)(F)F)cn2)CC1 [Example 56, 3-[2,2-difluoroethyl-[4-oxo-4-[4-[5-(trifluoromethyl)pyrimidin-2-yl]piperazin-1-yl]butyl]amino]-5-(trifluoromethyl)-1H-pyridazin-6-one] was run?
**A.** 452 nM

**Q.** What about the IC50 (PARP7) of the same compound?
**A.** 0.877 nM

**Q.** O=C(CCCCNc1cc(C(F)(F)F)c(=O)[nH]n1)N1CCN(c2ncc(C(F)(F)F)cn2)CC1 [Example 23, 6-((5-oxo-5-(4-(5-(trifluoromethyl)pyrimidin-2-yl)piperazin-1-yl)pentyl)amino)-4-(trifluoromethyl)pyridazin-3(2H)-one] was tested. Which EC50 [1] did it give?
**A.** 532 nM

**Q.** And the IC50 (PARP7)?
**A.** 0.521 nM

**Q.** O=C(OCCCc1cc(C(F)(F)F)c(=O)[nH]n1)N1CCN(c2ncc(C(F)(F)F)cn2)CC1 [Example 13, 3-(6-oxo-5-(trifluoromethyl)-1,6-dihydropyridazin-3-yl)propyl 4-(5-(trifluoromethyl)pyrimidin-2-yl)piperazine-1-carboxylate] was tested. Which EC50 [1] did it give?
**A.** 1160 nM

**Q.** And the IC50 (PARP7)?
**A.** 1.33 nM

**Q.** For [2H]C1([2H])N(C(=O)CCCNc2cc(C(F)(F)F)c(=O)[nH]n2)C([2H])([2H])C([2H])([2H])N(c2ncc(C(F)(F)F)cn2)C1([2H])[2H] [Example 51, 3-[[4-[2,2,3,3,5,5,6,6-octadeuterio-4-[5-(trifluoromethyl)pyrimidin-2-yl]piperazin-1-yl]-4-oxo-butyl]amino]-5-(trifluoromethyl)-1H-pyridazin-6-one], which EC50 [1] is on record?
**A.** 123 nM

**Q.** And the IC50 (PARP7)?
**A.** 0.165 nM

**Q.** For O=C(CCNCc1cc(C(F)(F)F)c(=O)[nH]n1)N1CCN(c2ncc(C(F)(F)F)cn2)CC1 [Example 73, 6-(((3-oxo-3-(4-(5-(trifluoromethyl)pyrimidin-2-yl)piperazin-1-yl)propyl)amino)methyl)-4-(trifluoromethyl)pyridazin-3(2H)-one], which EC50 [1] is on record?
**A.** 2030 nM

**Q.** And the IC50 (PARP7)?
**A.** 1.79 nM

**Q.** How did the EC50 [1] turn out when O=c1[nH]nc(NCCCS(=O)(=O)N2CCN(c3ncc(C(F)(F)F)cn3)CC2)cc1C(F)(F)F [Example 21, 4-(trifluoromethyl)-6-((3-((4-(5-(trifluoromethyl)pyrimidin-2-yl)piperazin-1-yl)sulfonyl)propyl)amino)pyridazin-3(2H)-one] was run?
**A.** ≥ 10000 nM

**Q.** What about the IC50 (PARP7) of the same compound?
**A.** 18.6 nM

**Q.** Which results are given for O=C(c1cccc(CNc2cc(C(F)(F)F)c(=O)[nH]n2)c1)N1CCN(c2ncc(C(F)(F)F)cn2)CC1 [Example 19, 4-(trifluoromethyl)-6-((3-(4-(5-(trifluoromethyl)pyrimidin-2-yl)piperazine-1-carbonyl)benzyl)amino)pyridazin-3(2H)-one]?
**A.** EC50 [1]: ≥ 10000 nM; IC50 (PARP7): 16.3 nM

**Q.** O=C([C@@H]1CCC[C@H](Nc2cc(C(F)(F)F)c(=O)[nH]n2)C1)N1CCN(c2ncc(C(F)(F)F)cn2)CC1 [Example 60, 5-(trifluoromethyl)-3-[[(1S,3R)-3-[4-[5-(trifluoromethyl)pyrimidin-2-yl]piperazine-1-carbonyl]cyclohexyl]amino]-1H-pyridazin-6-one] was tested. Which EC50 [1] did it give?
**A.** ≥ 10000 nM

**Q.** What about the IC50 (PARP7) of the same compound?
**A.** 1.07 nM

**Q.** O=C(CC[C@@H](Nc1cc(C(F)(F)F)c(=O)[nH]n1)C(F)F)N1CCN(c2ncc(C(F)(F)F)cn2)CC1 [Example 40, (R)-6-((1,1-difluoro-5-oxo-5-(4-(5-(trifluoromethyl)pyrimidin-2-yl)piperazin-1-yl)pentan-2-yl)amino)-4-(trifluoromethyl)pyridazin-3(2H)-one] was tested. Which EC50 [1] did it give?
**A.** 63 nM

**Q.** And the IC50 (PARP7)?
**A.** 0.275 nM

**Q.** With O=C(CCC[C@@H]1CCCc2c1n[nH]c(=O)c2C(F)(F)F)N1CCN(c2ncc(C(F)(F)F)cn2)CC1 (single isomer, unassigned) [Example 76] as the compound, how does the EC50 [1] read?
**A.** 37.8 nM

**Q.** And the IC50 (PARP7)?
**A.** 0.225 nM

**Q.** O=C(CCCCc1cc(C(F)(F)F)c(=O)[nH]n1)N1CCN(c2ncc(C(F)(F)F)cn2)CC1 [Example 1, 6-(5-oxo-5-(4-(5-(trifluoromethyl)pyrimidin-2-yl)piperazin-1-yl)pentyl)-4-(trifluoromethyl)pyridazin-3(2H)-one] was tested. Which EC50 [1] did it give?
**A.** 60.6 nM

**Q.** And the IC50 (PARP7)?
**A.** 0.288 nM

**Q.** How did the EC50 [1] turn out when O=C(C[C@H]1CCCCN1c1cc(C(F)(F)F)c(=O)[nH]n1)N1CCN(c2ncc(C(F)(F)F)cn2)CC1 [Example 34, (R)-6-(2-(2-oxo-2-(4-(5-(trifluoromethyl)pyrimidin-2-yl)piperazin-1-yl)ethyl)piperidin-1-yl)-4-(trifluoromethyl)pyridazin-3(2H)-one] was run?
**A.** 1690 nM

**Q.** And the IC50 (PARP7)?
**A.** 4.46 nM

**Q.** Which results are given for O=C(OCCNc1cc(C(F)(F)F)c(=O)[nH]n1)N1CCN(c2ncc(C(F)(F)F)cn2)CC1 [Example 20, 2-((6-oxo-5-(trifluoromethyl)-1,6-dihydropyridazin-3-yl)amino)ethyl4-(5-(trifluoromethyl)pyrimidin-2-yl)piperazine-1-carboxylate]?
**A.** EC50 [1]: ≥ 10000 nM; IC50 (PARP7): 1.76 nM

**Q.** With O=C(CCC[C@H]1CCCc2c1n[nH]c(=O)c2C(F)(F)F)N1CCN(c2ncc(C(F)(F)F)cn2)CC1 (single isomer, unassigned) [Example 77] as the compound, how does the EC50 [1] read?
**A.** 523 nM

**Q.** What about the IC50 (PARP7) of the same compound?
**A.** 1.41 nM

**Q.** What does the source list for O=C(C[C@@H]1CCCCN1c1cc(C(F)(F)F)c(=O)[nH]n1)N1CCN(c2ncc(C(F)(F)F)cn2)CC1 [Example 30, (S)-6-(2-(2-oxo-2-(4-(5-(trifluoromethyl)pyrimidin-2-yl)piperazin-1-yl)ethyl)piperidin-1-yl)-4-(trifluoromethyl)pyridazin-3(2H)-one]?
**A.** EC50 [1]: 779 nM; IC50 (PARP7): 2.32 nM
